From patent publication US12247018B2, “Aryl-n-aryl derivatives for treating a RNA virus infection” (ABIVAX, priority 2018, dated 2025) come the findings set out here.

For orientation: EC50 means the concentration that produces a half-maximal response.

The experiment relates to RSV A2. Put plainly: RSV inhibition (cytopathic effect) in HEp-2 cells using Viral ToxGlo assay. In kind it is cell-based. To be noted: human respiratory syncytial virus; RSV A2, HEp-2 cells, MOI 0.5, 72 h p.i. How it is done: Protocol for Screening Antiviral Compounds for RSV Inhibition and Cytotoxicity Using Viral ToxGlo Assay
HEp-2 cells were maintained in Eagle's minimum essential medium (EMEM) with Earle's BSS adjusted to contain 2 mM L-glutamine, 10% fetal bovine serum, 100 U/ml penicillin and 100 μg/ml streptomycin. For the purposes of the screening assay they were grown to 90% confluency, trypsinized and recovered. The trypsin was neutralised with cell culture media and cells were centrifuged at 150×g for 5 minutes before discarding the supernatant and resuspending cell pellet in assay media (EMEM with Earle's BSS adjusted to contain 2 mM L-glutamine, 2% fetal bovine serum and 100 U/ml penicillin and 100 μg/ml streptomycin). The cells were seeded into white clear-bottomed cell culture plates at a density of 1.5×10^4 cells/well in 50 μl and 4×10^3 cells/well in 25 μl for 96 well plates and 384 well plates respectively. For the media/background control column assay media only was added. Cell plates were placed in a humid chamber and incubated overnight at 37° C./5% CO2. After overnight incubation cells were checked for confluency and healthy appearance.
Test articles were made up at 10× test concentration in a maximum DMSO concentration of 10% (final assay concentration maximal 1% DMSO) and added to the cell plates in volumes of 10 μl for 96 well plates and 5 μl for 384 well plates. For cell control and virus control wells the test article solvent only was added. Virus or assay media for cytotoxicity test wells and media/cell control wells was added immediately after test articles at an MOI of 0.5, 40 or 20 μl for 96 and 384 well plates respectively. Virus suspension was prepared by thawing RSV A2 frozen stocks and diluting to the required concentration of plaque forming units in assay media on ice.
Cell plates were further incubated inside a humid chamber for 72 h p.i at 37° C./5% CO2. After the incubation period cells were observed under the microscope to check for characteristic cytopathic effect in virus control wells and healthy cells in the cell control wells. After plates were adjusted to room temperature 20/40 μl Viral ToxGlo (Promega) was added to each well of the 384/96 well cell plates. Plates were incubated at room temperature, protected from light on a plate rocker for 20 minutes before measuring the luminescence on a spectrophotometer (Biotek Synergy HTX).
On to `CC(C)NC(=O)c1cccc(Nc2ccc(C(=O)/N=C3\NCCC(=O)N3)cc2C2CC2)c1` [compound 120, 3-cyclopropyl-N-[(2E)-4-oxo-1,3-diazinan-2-ylidene]-4-({3-[(propan-2-yl)carbamoyl]phenyl}amino)benzamide], for which the concentration giving a half-maximal response (EC50) was determined as 0.136 µM.
For `CC1(NC(=O)c2cccc(Nc3ccc(C(=O)/N=C4\NCCC(=O)N4)cc3C3CC3)c2)CC1` [compound 121, 3-cyclopropyl-4-({3-[(1-methylcyclopropyl)carbamoyl]phenyl}amino)-N-[(2E)-4-oxo-1,3-diazinan-2-ylidene]benzamide] the value was 0.139 µM.
For `CC(C)C(=O)Nc1cccc(Nc2ccc(C(=O)/N=C3\NCCC(=O)N3)cc2C2CC2)c1C1CC1` [compound 122, 3-cyclopropyl-4-{[2-cyclopropyl-3-(2-methylpropanamido)phenyl]amino}-N-[(2E)-4-oxo-1,3-diazinan-2-ylidene]benzamide] the value was 0.141 µM.
Under `CC(C)(C)NC(=O)c1cccc(Nc2ccc(C(=O)N=C3NCCCN3)cc2C2CC2)c1` [compound 123, 4-{[3-(tert-butylcarbamoyl)phenyl]amino}-3-cyclopropyl-N-(1,3-diazinan-2-ylidene)benzamide] stands 0.147 µM; under `O=C(N=C1NCCCN1)c1ccc(Nc2cccc(OCC(F)(F)F)c2)c(C2CC2)c1` [compound 124, 3-cyclopropyl-N-(1,3-diazinan-2-ylidene)-4-{[3-(2,2,2-trifluoroethoxy)phenyl]amino}benzamide], 0.15 µM; under `O=C(N=C1NCCCN1)c1ccc(Nc2cccc(OCC(F)F)c2)c(C2CC2)c1` [compound 125, 3-cyclopropyl-N-(1,3-diazinan-2-ylidene)-4-{[3-(2,2-difluoroethoxy)phenyl]amino}benzamide], 0.151 µM.
`O=C(N=C1NCCCN1)c1ccc(Nc2cccc(C(=O)NCCC3CCOCC3)c2)c(C2CC2)c1` [compound 126, 3-cyclopropyl-N-(1,3-diazinan-2-ylidene)-4-[(3-{[2-(oxan-4-yl)ethyl]carbamoyl}phenyl)amino]benzamide]: the EC50 was determined as 0.165 µM.
For `O=C(N=C1NCCCN1)c1ccc(Nc2cccc(OCC3CCCCC3)c2)c(C2CC2)c1` [compound 127, 4-{[3-(cyclohexylmethoxy)phenyl]amino}-3-cyclopropyl-N-(1,3-diazinan-2-ylidene)benzamide] the value was 0.172 µM; for `Cc1c(NC(=O)CCC(C)C)cccc1Nc1ccc(C(=O)N=C2NCCCN2)cc1C1CC1` [compound 128, 3-cyclopropyl-N-(1,3-diazinan-2-ylidene)-4-{[2-methyl-3-(4-methylpentanamido)phenyl]amino}benzamide], 0.209 µM.
For `O=C(N=C1NCCCN1)c1ccc(Nc2cccc(OC3CCC3)c2)c(C2CC2)c1` [compound 129, 4-[(3-cyclobutoxyphenyl)amino]-3-cyclopropyl-N-(1,3-diazinan-2-ylidene)benzamide] the value was 0.223 µM; for `O=C(N=C1NCCCN1)c1ccc(Nc2cccc(OCCC3CCCCC3)c2)c(C2CC2)c1` [compound 130, 4-{[3-(2-cyclohexylethoxy)phenyl]amino}-3-cyclopropyl-N-(1,3-diazinan-2-ylidene)benzamide], 0.234 µM.
For `CC(C)CNC(=O)c1cccc(Nc2ccc(C(=O)N=C3NCCCN3)cc2C2CC2)c1` [compound 131, 3-cyclopropyl-N-(1,3-diazinan-2-ylidene)-4-({3-[(2-methylpropyl)carbamoyl]phenyl}amino)benzamide] the value was 0.246 µM; for `CC(C)CCCOc1cccc(Nc2ccc(C(=O)N=C3NCCCN3)cc2C2CC2)c1` [compound 132, 3-cyclopropyl-N-(1,3-diazinan-2-ylidene)-4-({3-[(4-methylpentyl)oxy]phenyl}amino)benzamide], 0.259 µM; for `O=C(N=C1NCCCN1)c1ccc(Nc2cccc(C(=O)NCC(F)(F)F)c2)c(C2CC2)c1` [compound 133, 3-cyclopropyl-N-(1,3-diazinan-2-ylidene)-4-({3-[(2,2,2-trifluoroethyl)carbamoyl]phenyl}amino)benzamide], 0.261 µM.
Consider `O=C1CCN/C(=N\C(=O)c2ccc(Nc3cccc(OCC4CCCOC4)c3)c(C3CC3)c2)N1` (centres unmarked) [compound 134, 3-cyclopropyl-4-({3-[(oxan-3-yl)methoxy]phenyl}amino)-N-[(2E)-4-oxo-1,3-diazinan-2-ylidene]benzamide], for which the EC50 came out at 0.265 µM.
Under `Cc1c(N)cccc1Nc1ccc(C(=O)N=C2NCCCN2)cc1C1CC1` [compound 135, 4-[(3-amino-2-methylphenyl)amino]-3-cyclopropyl-N-(1,3-diazinan-2-ylidene)benzamide] stands 0.286 µM.
Under `O=C(N=C1NCCCN1)c1ccc(Nc2cccc(C(=O)N3CC4CC4C3)c2)c(C2CC2)c1` (centres unmarked) [compound 136, 4-[(3-{3-azabicyclo[3.1.0]hexane-3-carbonyl}phenyl)amino]-3-cyclopropyl-N-(1,3-diazinan-2-ylidene)benzamide] stands 0.298 µM; under `O=C(N=C1NCCCN1)c1ccc(Nc2cccc(OC(F)(F)F)c2)c(C2CC2)c1` [compound 137, 3-cyclopropyl-N-(1,3-diazinan-2-ylidene)-4-{[3-(trifluoromethoxy)phenyl]amino}benzamide], 0.304 µM; under `O=C(N=C1NCCCN1)c1ccc(Nc2ccnc(C(=O)NCCC3CCCCC3)c2)c(C2CC2)c1` [compound 138, N-(2-cyclohexylethyl)-4-({2-cyclopropyl-4-[(1,3-diazinan-2-ylidene)carbamoyl]phenyl}amino)pyridine-2-carboxamide], 0.31 µM.
Under `CC(C)OCCOc1cccc(Nc2ccc(C(=O)N=C3NCCCN3)cc2C2CC2)c1` [compound 139, 3-cyclopropyl-N-(1,3-diazinan-2-ylidene)-4-({3-[2-(propan-2-yloxy)ethoxy]phenyl}amino)benzamide] stands 0.34 µM; under `O=C(N=C1NCCCN1)c1ccc(Nc2cccc(OCCCCC3CCCCC3)c2)c(C2CC2)c1` [compound 140, 4-{[3-(4-cyclohexylbutoxy)phenyl]amino}-3-cyclopropyl-N-(1,3-diazinan-2-ylidene)benzamide], 0.368 µM; under `Cc1c(Nc2ccc(C(=O)N=C3NCCCN3)cc2C2CC2)cccc1-c1ncc(Cl)[nH]1` [compound 141, 4-{[3-(5-chloro-1H-imidazol-2-yl)-2-methylphenyl]amino}-3-cyclopropyl-N-(1,3-diazinan-2-ylidene)benzamide], 0.37 µM.
Regarding `O=C(N=C1NCCCN1)c1ccc(Nc2cccc(S(=O)(=O)CCCC3CCCCC3)c2)c(C2CC2)c1` [compound 143, 4-{[3-(3-cyclohexylpropanesulfonyl)phenyl]amino}-3-cyclopropyl-N-(1,3-diazinan-2-ylidene)benzamide], the EC50 is 0.398 µM.
With `O=C(N=C1NCCCN1)c1ccc(Nc2cccc(OC3COC3)c2)c(C2CC2)c1` [compound 144, 3-cyclopropyl-N-(1,3-diazinan-2-ylidene)-4-{[3-(oxetan-3-yloxy)phenyl]amino}benzamide], the concentration giving a half-maximal response (EC50) was 0.413 µM.
Under `O=C1CCN/C(=N\C(=O)c2ccc(Nc3cccc(C(=O)NC4CC4)c3)c(C3CC3)c2)N1` [compound 145, 3-cyclopropyl-4-{[3-(cyclopropylcarbamoyl)phenyl]amino}-N-[(2E)-4-oxo-1,3-diazinan-2-ylidene]benzamide] stands 0.421 µM.
Under `O=C1CCN/C(=N\C(=O)c2ccc(Nc3cccc(OCC4CCOCC4)c3)c(C3CC3)c2)N1` [compound 146, 3-cyclopropyl-4-({3-[(oxan-4-yl)methoxy]phenyl}amino)-N-[(2E)-4-oxo-1,3-diazinan-2-ylidene]benzamide] stands 0.439 µM; under `CC(C)CCNC(=O)c1ccccc1Nc1ccc(C(=O)N=C2NCCCN2)cc1C1CC1` [compound 147, 3-cyclopropyl-N-(1,3-diazinan-2-ylidene)-4-({2-[(3-methylbutyl)carbamoyl]phenyl}amino)benzamide], 0.46 µM.
For `O=C(CCC1CCCCC1)Nc1cc(Nc2ccc(C(=O)N=C3NCCCN3)cc2C(F)(F)F)ccc1F` [compound 148, 4-{[3-(3-cyclohexylpropanamido)-4-fluorophenyl]amino}-N-(1,3-diazinan-2-ylidene)-3-(trifluoromethyl)benzamide] the value was 0.463 µM.
As for `O=C(N=C1NCCCN1)c1ccc(Nc2cccc(-c3nnn(CCCC4CCCCC4)n3)c2)c(C2CC2)c1` [compound 149, 4-({3-[2-(3-cyclohexylpropyl)-2H-1,2,3,4-tetrazol-5-yl]phenyl}amino)-3-cyclopropyl-N-(1,3-diazinan-2-ylidene)benzamide], the EC50 worked out at 0.494 µM.
